Results published in patent US10798941B2, “Microbiocidal oxadiazole derivatives” (SYNGENTA PARTICIPATIONS AG, priority 2016, dated 2020).

Legend:
[1] = test system: Puccinia recondita f. Sp. Tritici; assay: Puccinia recondita f. sp. tritici / wheat / leaf disc preventative (brown rust); assay type: in vivo; conditions: foliar, 168 h, 200 ppm in the applied formulation, wheat leaf segments cv. Kanzler, preventative, inoculated 1 day after application, assessed 7 to 9 days after application, vs untreated, read-out: disease control
In short: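 Wheat cv. Kanzler leaf segments on agar were sprayed with formulated compound in water, then inoculated with spores 1 day later. Incubated at 19° C, 75% rh, 12 h light/12 h dark; percent disease control versus untreated scored 7 to 9 days after application.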

[2] = test system: Puccinia recondita f. Sp. Tritici; assay: Puccinia recondita f. sp. tritici / wheat / leaf disc curative (brown rust); assay type: in vivo; conditions: foliar, 144 h, 200 ppm in the applied formulation, wheat leaf segments cv. Kanzler, applied 1 day after inoculation, assessed 6 to 8 days after application, vs untreated, read-out: disease control
In short: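 Wheat cv. Kanzler leaf segments on agar were inoculated with fungal spore suspension, held dark at 19° C and 75% RH, then sprayed 1 day later with formulated compound diluted in water. Incubation continued at 19° C, 75% RH, 12 h light/12 h dark; percent disease control versus untreated was scored 6 to 8 days after application.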

[3] = test system: Phakopsora pachyrhizi; assay: Phakopsora pachyrhizi / soybean / leaf disc preventative (Asian soybean rust); assay type: in vivo; conditions: foliar, 288 h, 200 ppm in the applied formulation, soybean leaf disks, inoculated one day after application, assessed 12 to 14 days after application, vs untreated, read-out: disease control
In short: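 Read-out is percent disease control relative to untreated check discs, assessed once untreated discs show adequate disease, 12 to 14 days after application. Compounds, tested at 200 ppm in the applied formulation, are sprayed onto soybean leaf discs one day before inoculation with a spore suspension.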

[4] = test system: Glomerella Lagenarium (Colletotrichum Lagenarium); assay: Glomerella lagenarium (Colletotrichum lagenarium) liquid culture / cucumber / preventative (anthracnose); assay type: cell-based; conditions: Colletotrichum orbiculare; 20 ppm in the applied formulation; liquid culture in PDB, 24° C., inhibition of growth measured photometrically 3 to 4 days after application, vs untreated; read-out: disease control
In short: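 Conidia from cryogenic storage were mixed into potato dextrose broth. This was added to compound diluted from DMSO into 0.025% Tween20, tested at 20 ppm. Plates were incubated in the dark at 24 °C and 96% relative humidity, and growth was read photometrically after 2–7 days as % activity versus untreated check.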

[5] = test system: Uromyces viciae-Fabae; assay: Uromyces viciae-fabae / field bean / leaf disc preventative (faba-bean rust); assay type: in vivo; conditions: foliar, 288 h, 100 ppm in the applied formulation, field bean leaf discs, inoculated two hours after application, assessed 12 days after application, vs untreated, read-out: disease control
Experimental: Leaf disks or leaf segments of various plant species are cut from plants grown in a greenhouse. The cut leaf disks or segments are placed in multiwell plates (24-well format) onto water agar. The leaf disks are sprayed with a test solution before (preventative) or after (curative) inoculation. Compounds to be tested are prepared as DMSO solutions (max. 10 mg/ml) which are diluted to the appropriate concentration with 0.025% Tween20 just before spraying. The inoculated leaf disks or segments are incubated under defined conditions (temperature, relative humidity, light, etc.) according to the respective test system. A single evaluation of disease level is carried out 3 to 14 days after inoculation, depending on the pathosystem. Percent disease control relative to the untreated check leaf disks or segments is then calculated.
Field bean leaf discs are placed on water agar in multiwell plates (96-well format) and 10 μl of the formulated test compound diluted in acetone and a spreader pipetted onto the leaf disc. Two hours after application leaf discs are inoculated by spraying a spore suspension on the lower leaf surface. The leaf discs are incubated in a climate cabinet at 22° C. with 18 hour day and 70% relative humidity. The activity of a compound is assessed as percent disease control compared to untreated when an appropriate level of disease damage appears in untreated check leaf disks (12 days after application).
The following compounds at 100 ppm in the applied formulation give at least 80% disease control in this test when compared to untreated control leaf discs under the same conditions, which show extensive disease development.

| Structure (SMILES) | pest or weed control at 200 ppm [1] [%] | pest or weed control at 200 ppm [2] [%] | pest or weed control at 200 ppm [3] [%] | inhibition of growth at 20 ppm [4] [%] | pest or weed control at 100 ppm [5] [%] | melting point [°C] |
| --- | --- | --- | --- | --- | --- | --- |
| FC(F)(F)c1nc(-c2ccc(Cn3ccnc3)cc2)no1 [Compound 1.18, 3-[4-(imidazol-1-ylmethyl)phenyl]-5-(trifluoromethyl)-1,2,4-oxadiazole] | ≥ 80 | ≥ 80 | ≥ 80 | ≥ 80 | ≥ 80 | 45 to 55 |
| FC(F)(F)c1nc(-c2ccc(Cn3cncn3)cc2)no1 [Compound 1.19, 3-[4-(1,2,4-triazol-1-ylmethyl)phenyl]-5-(trifluoromethyl)-1,2,4-oxadiazole] | ≥ 80 | ≥ 80 | ≥ 80 | ≥ 80 | ≥ 80 | 72 to 77 |
